# Laboratory results from US20210070748A1, “INHIBITORS OF BRUTONS TYROSINE KINASE” (Pharmacyclics LLC, priority 2015, published 2021).
# Where two headings read alike, the source gives them in different places.
# Tests used:
# BTK-WT = biological target: T1, BTK-WT (Homo sapiens, UniProt Q06187); experiment: Btk in vitro inhibitory activity (one of Method A TR-FRET, Method B electrophoretic mobility shift, Method C radiometric filter binding); format: biochemical; settings: read-out: BTK-WT (IC50)
# T1 construct: purified from insect cells as a full-length construct containing an N-terminal 6X-His tag; His6 (N); made in house; host or cells: insect cells (baculovirus Sf21 in Method B)
# T1 sequence (Q06187 whole entry): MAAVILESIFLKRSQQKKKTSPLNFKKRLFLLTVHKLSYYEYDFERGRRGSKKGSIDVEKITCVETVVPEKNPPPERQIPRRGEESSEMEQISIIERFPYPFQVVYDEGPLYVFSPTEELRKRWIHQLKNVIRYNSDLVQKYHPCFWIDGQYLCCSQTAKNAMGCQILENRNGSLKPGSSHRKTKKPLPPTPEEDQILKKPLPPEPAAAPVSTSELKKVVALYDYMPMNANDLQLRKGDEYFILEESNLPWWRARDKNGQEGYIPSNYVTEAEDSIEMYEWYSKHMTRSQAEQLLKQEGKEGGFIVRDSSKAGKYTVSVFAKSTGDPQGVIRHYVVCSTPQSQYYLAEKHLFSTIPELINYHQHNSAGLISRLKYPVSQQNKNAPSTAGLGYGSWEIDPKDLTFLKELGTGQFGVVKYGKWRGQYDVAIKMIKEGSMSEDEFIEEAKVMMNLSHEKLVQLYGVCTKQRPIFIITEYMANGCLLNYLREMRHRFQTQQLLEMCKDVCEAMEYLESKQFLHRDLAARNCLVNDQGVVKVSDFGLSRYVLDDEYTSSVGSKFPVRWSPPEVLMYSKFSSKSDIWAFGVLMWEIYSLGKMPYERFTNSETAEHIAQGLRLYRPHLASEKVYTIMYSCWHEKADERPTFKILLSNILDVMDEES
# JAK3 = biological target: T2, JAK3 (Homo sapiens, UniProt P52333); experiment: Inhibition of a panel of kinases, in vitro HotSpot kinase assay: JAK3; format: biochemical; settings: 1 μM ATP, read-out: JAK3 (IC50)
# T2 sequence (P52333 1-1124): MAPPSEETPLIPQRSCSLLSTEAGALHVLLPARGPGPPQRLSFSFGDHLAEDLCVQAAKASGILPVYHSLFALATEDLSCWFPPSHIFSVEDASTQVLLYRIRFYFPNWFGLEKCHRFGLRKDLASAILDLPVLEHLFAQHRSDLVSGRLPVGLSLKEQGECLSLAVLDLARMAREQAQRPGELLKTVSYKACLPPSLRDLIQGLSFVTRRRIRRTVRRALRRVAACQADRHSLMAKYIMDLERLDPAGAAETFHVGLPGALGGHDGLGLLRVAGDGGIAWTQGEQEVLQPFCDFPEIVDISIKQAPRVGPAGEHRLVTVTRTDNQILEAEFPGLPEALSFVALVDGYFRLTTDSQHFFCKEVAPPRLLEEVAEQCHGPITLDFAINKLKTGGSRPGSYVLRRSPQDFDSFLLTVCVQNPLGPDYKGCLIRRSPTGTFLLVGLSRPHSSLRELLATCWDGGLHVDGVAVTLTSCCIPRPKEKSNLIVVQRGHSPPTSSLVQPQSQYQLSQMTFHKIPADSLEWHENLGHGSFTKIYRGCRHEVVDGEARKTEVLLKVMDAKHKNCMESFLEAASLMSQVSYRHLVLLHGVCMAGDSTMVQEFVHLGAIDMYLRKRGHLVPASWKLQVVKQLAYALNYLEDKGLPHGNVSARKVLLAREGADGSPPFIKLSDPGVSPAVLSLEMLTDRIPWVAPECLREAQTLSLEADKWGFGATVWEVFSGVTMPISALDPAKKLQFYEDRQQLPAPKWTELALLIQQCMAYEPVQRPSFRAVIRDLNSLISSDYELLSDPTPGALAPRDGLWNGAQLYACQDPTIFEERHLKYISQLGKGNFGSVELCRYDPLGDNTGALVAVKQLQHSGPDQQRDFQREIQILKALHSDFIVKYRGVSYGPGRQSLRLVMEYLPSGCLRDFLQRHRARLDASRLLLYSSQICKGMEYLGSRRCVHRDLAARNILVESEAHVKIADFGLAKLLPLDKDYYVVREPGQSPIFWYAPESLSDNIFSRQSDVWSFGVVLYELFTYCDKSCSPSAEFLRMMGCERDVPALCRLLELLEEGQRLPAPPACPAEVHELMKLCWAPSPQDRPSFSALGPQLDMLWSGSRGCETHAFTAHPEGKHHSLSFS
Structure (SMILES),"IC50 (BTK-WT; Table 10, Formula A-I) [nM]","IC50 (JAK3; Table 10, Formula A-I) [nM]",also measured
"Cc1cc(Nc2nc(N3CCC[C@@H](NC(=O)c4ccc(N(C)C)cc4)[C@H]3CO)cnc2C(N)=O)sn1 (stereo in doubt) [Example A-68, 5-[(2S,3R)-3-[4-(dimethylamino)benzamido]-2-(hydroxymethyl)piperidin-1-yl]-3-[(3-methyl-1,2-thiazol-5-yl)amino]pyrazine-2-carboxamide]",100 to 1000,> 10000,–
"Cc1cc(Nc2nc(N3CCC[C@@H](NC(=O)c4ccc(N(C)C)cc4)[C@@H]3CO)cnc2C(N)=O)sn1 [Example A-69, 5-[(2R,3R)-3-[4-(dimethylamino)benzamido]-2-(hydroxymethyl)piperidin-1-yl]-3-[(3-methyl-1,2-thiazol-5-yl)amino]pyrazine-2-carboxamide]",100 to 1000,> 10000,–
CN(C)c1ccc(C(=O)N[C@H]2CC[C@H](Nc3cnc(C(N)=O)c(Nc4ccc5ncccc5c4)n3)CC2)cc1 [Example B-2],–,–,"IC50 (BTK-WT; Table 11, Formula B-I): 100 to 1000 nM; IC50 (JAK3; Table 11, Formula B-I): > 10000 nM"
"Cc1cc(Nc2nc(NC3CCC(NC(=O)N(C)C)CC3)cnc2C(N)=O)sn1 (stereo not shown) [Example B-3, 5-({4-[(dimethylcarbamoyl)amino]cyclohexyl}amino)-3-[(3-methyl-1,2-thiazol-5-yl)amino]pyrazine-2-carboxamide]",–,–,"IC50 (BTK-WT; Table 11, Formula B-I): ≤ 100 nM; IC50 (JAK3; Table 11, Formula B-I): < 100 nM"
"Cc1cc(Nc2nc(N3CCC[C@H](NC(=O)c4ccc(N(C)C)cc4)[C@H]3CO)cnc2C(N)=O)sn1 [Example A-70, 5-[(2S,3S)-3-[4-(dimethylamino)benzamido]-2-(hydroxymethyl)piperidin-1-yl]-3-[(3-methyl-1,2-thiazol-5-yl)amino]pyrazine-2-carboxamide]",100 to 1000,> 10000,–
"CC(C)c1ccc(C(=O)N[C@@H]2CCCN(c3cnc(C(N)=O)c(Nc4ccccn4)n3)C2)cc1 [Example A-71, 5-[(3R)-3-[4-(propan-2-yl)benzamido]piperidin-1-yl]-3-[(pyridin-2-yl)amino]pyrazine-2-carboxamide]",1000 to 10000,1000 to 10000,–
"CC(C)c1ccc(C(=O)N[C@@H]2CCCN(c3cnc(C(N)=O)c(Nc4ccccc4)n3)C2)cc1 [Example A-65, 3-(phenylamino)-5-[(3R)-3-[4-(propan-2-yl)benzamido]piperidin-1-yl]pyrazine-2-carboxamide]",1000 to 10000,> 10000,–
"Cc1cc(Nc2c(C(N)=O)ncc(N3CCC[C@@H](NC(=O)c4ccc(N(C)C)cc4)C3)c2C)sn1 [Example A-66, 5-[(3R)-3-[4-(dimethylamino)benzamido]piperidin-1-yl]-4-methyl-3-[(3-methyl-1,2-thiazol-5-yl)amino]pyridine-2-carboxamide]",1000 to 10000,> 10000,–
"Cc1cc(Nc2nc(N(C)[C@H]3CCCN(C(=O)c4ccc(N(C)C)cc4)C3)cnc2C(N)=O)sn1 [Example C-9, 5-{[(3S)-1-[4-(dimethylamino)benzoyl]piperidin-3-yl](methyl)amino}-3-[(3-methyl-1,2-thiazol-5-yl)amino]pyrazine-2-carboxamide]",–,–,"IC50 (BTK-WT; Table 12, Formula C-I): 1000 to 10000 nM; IC50 (JAK3; Table 12, Formula C-I): > 10000 nM"
"Cc1cc(Nc2cc(N3CCC[C@@H](NC(=O)c4ccc(C(C)C)cc4)C3)cnc2C(N)=O)sn1 [Example A-63, 3-[(3-methyl-1,2-thiazol-5-yl)amino]-5-[(3R)-3-[4-(propan-2-yl)benzamido]piperidin-1-yl]pyridine-2-carboxamide]",≤ 100,> 10000,–
"Cc1cc(Nc2nc(N3CCC[C@@H](NC(=O)c4ccc(C(C)C)cc4)[C@H]3C)cnc2C(N)=O)sn1 [Example A-56, 3-[(3-methyl-1,2-thiazol-5-yl)amino]-5-[(2R,3R)-2-methyl-3-[4-(propan-2-yl)benzamido]piperidin-1-yl]pyrazine-2-carboxamide]",≤ 100,1000 to 10000,–

# Now from value to compound, other results behind:
"IC50 (BTK-WT; Table 10, Formula A-I) [nM]","IC50 (JAK3; Table 10, Formula A-I) [nM]",Structure (SMILES),also measured
≤ 100,1000 to 10000,"CCN1N=CC2C=C(C(=O)N[C@@H]3CCCN(c4cnc(C(N)=O)c(Nc5cc(C)ns5)n4)C3)C=CC21 (stereo partly drawn) [Example A-72, N-[(3R)-1-{5-carbamoyl-6-[(3-methyl-1,2-thiazol-5-yl)amino]pyrazin-2-yl}piperidin-3-yl]-1-ethyl-3a,7a-dihydro-1H-indazole-5-carboxamide]",–
≤ 100,100 to 1000,"Cc1cccc(C(=O)N[C@@H]2CCCN(c3cnc(C(N)=O)c(Nc4ccc(C5CCN(C6CCCC6)CC5)cc4)n3)C2)c1 [Example A-8, 3-{[4-(1-cyclopentylpiperidin-4-yl)phenyl]amino}-5-[(3R)-3-(3-methylbenzamido)piperidin-1-yl]pyrazine-2-carboxamide]",–
≤ 100,1000 to 10000,"CCn1cc2cc(C(=O)N[C@@H]3CCCN(c4cnc(C(N)=O)c(Nc5cc(C)ns5)n4)C3)ccc2n1 [Example A-38, N-[(3R)-1-{5-carbamoyl-6-[(3-methyl-1,2-thiazol-5-yl)amino]pyrazin-2-yl}piperidin-3-yl]-2-ethyl-2H-indazole-5-carboxamide]",–
≤ 100,> 10000,"Cc1cc(Nc2nc(N3CCC[C@@H](NC(=O)c4ccc(C(C)(C)C)cc4)C3)cnc2C(N)=O)sn1 [Example A-37, 5-[(3R)-3-(4-tert-butylbenzamido)piperidin-1-yl]-3-[(3-methyl-1,2-thiazol-5-yl)amino]pyrazine-2-carboxamide]",–
≤ 100,> 10000,"Cc1cc(Nc2nc(N3CCC[C@@H](N(C)C(=O)c4ccc(C(C)C)cc4)C3)cnc2C(N)=O)sn1 [Example A-40, 3-[(3-methyl-1,2-thiazol-5-yl)amino]-5-[(3R)-3-[N-methyl4-(propan-2-yl)benzamido]piperidin-1-yl]pyrazine-2-carboxamide]",–
≤ 100,1000 to 10000,"Cc1cc(Nc2nc(N3CCC[C@@H](NC(=O)c4ccc(C5CC5)cc4F)[C@H]3C)cnc2C(N)=O)sn1 [Example A-74, 5-[(2R,3R)-3-(4-cyclopropyl-2-fluorobenzamido)-2-methylpiperidin-1-yl]-3-[(3-methyl-1,2-thiazol-5-yl)amino]pyrazine-2-carboxamide]",–
≤ 100,100 to 1000,"Cc1cc(Nc2nc(N3CCC[C@@H](NC(=O)c4ccc(N(C)C)cc4)[C@H]3C)cnc2C(N)=O)sn1 [Example A-55, 5-[(2R,3R)-3-[4-(dimethylamino)benzamido]-2-methylpiperidin-1-yl]-3-[(3-methyl-1,2-thiazol-5-yl)amino]pyrazine-2-carboxamide]",–
≤ 100,> 10000,"Cc1cc(Nc2nc(N3CCC[C@@H](NC(=O)c4ccc(C5CC5)cc4F)C3)cnc2C(N)=O)sn1 [Example A-39, 5-[(3R)-3-(4-cyclopropyl-2-fluorobenzamido)piperidin-1-yl]-3-[(3-methyl-1,2-thiazol-5-yl)amino]pyrazine-2-carboxamide]",–
≤ 100,1000 to 10000,"C[C@@H]1[C@H](NC(=O)c2ccc(C3CC3)cc2F)CCCN1c1cnc(C(N)=O)c(Nc2ccc(N3CCN(C)CC3)cc2)n1 [Example A-81, 5-[(2R,3R)-3-(4-cyclopropyl-2-fluorobenzamido)-2-methylpiperidin-1-yl]-3-{[4-(4-methylpiperazin-1-yl)phenyl]amino}pyrazine-2-carboxamide]",–
≤ 100,100 to 1000,"Cc1cc(Nc2nc(N3CCC[C@H](NC(=O)c4ccc(N(C)C)cc4)[C@@H]3CO)cnc2C(N)=O)sn1 (stereo in doubt) [Example A-67, 5-[(2R,3S)-3-[4-(dimethylamino)benzamido]-2-(hydroxymethyl)piperidin-1-yl]-3-[(3-methyl-1,2-thiazol-5-yl)amino]pyrazine-2-carboxamide]",–
≤ 100,1000 to 10000,"Cc1cc(Nc2nc(N3CCCC(CNC(=O)N(C)C)C3)cnc2C(N)=O)sn1 (stereo not shown) [Example A-78, 5-(3-{[(dimethylcarbamoyl)amino]methyl}piperidin-1-yl)-3-[(3-methyl-1,2-thiazol-5-yl)amino]pyrazine-2-carboxamide]",–
≤ 100,1000 to 10000,"CC(C)c1ccc(C(=O)N[C@@H]2CCCN(c3cnc(C(N)=O)c(Nc4ccc(CN(C)C)cc4)n3)C2)cc1 [Example A-83, 3-({4-[(dimethylamino)methyl]phenyl}amino)-5-[(3R)-3-[4-(propan-2-yl)benzamido]piperidin-1-yl]pyrazine-2-carboxamide]",–
